These results are taken from US20260053932A1, “COMPOUNDS AND METHODS FOR THE TARGETED DEGRADATION OF ANDROGEN RECEPTOR AND ASSOCIATED METHODS OF USE” (Arvinas Operations, Inc., priority 2020, published 2026).

One assay relates to androgen receptor (AR) in LNCaP and/or VCaP cells. In words: Androgen Receptor ELISA assay (AR degradation). It counts as cell-based. The conditions noted are these: LNCaP and/or VCaP cells; 5 hours incubation; media with R1881; read-out: DC50 Code* (degradation of AR ELISA). Summed up:
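VCaP cells grown ≥3 days, then treated 5 h with compound in media containing 1 nM R1881 (10× stock). Cells lysed and AR quantified by sandwich ELISA (mouse AR detection Ab, HRP anti-mouse, TMB). DC50 and Dmax derived from AR degradation.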
In general terms: ELISA stands for enzyme-linked immunosorbent assay.
`COc1cc(O[C@H]2CC[C@H](NC(=O)c3cnc(N4CCC(CN(C(C)C)[C@H]5CC[C@H](Oc6ccc7c(c6)CN(C6CCC(=O)NC6=O)C7=O)CC5)CC4)cn3)CC2)ccc1C#N` (some centres unmarked) [Compound 19, N-((1r,4r)-4-(4-cyano-3-methoxyphenoxy)cyclohexyl)-5-(4-((((1r,4r)-4-((2-(2,6-dioxopiperidin-3-yl)-1-oxoisoindolin-5-yl)oxy)cyclohexyl) (isopropyl)amino)methyl)piperidin-1-yl)pyrazine-2-carboxamide]: the DC50 (commonly the midpoint of the concentration-degradation curve) is less than 1 nM.
On the same count and under the same terms, the same measure for `COc1cc(O[C@H]2C[C@H](N(CC3CCN(c4ncc(C(=O)N[C@H]5CC[C@@H](Oc6cc(C)c(C#N)c(C)c6)C5)cn4)CC3)C(C)C)C2)cc2c1C(=O)N(C1CCC(=O)NC1=O)C2=O` (stereo partly drawn) [Compound 9, N-((1S,3R)-3-(4-cyano-3,5-dimethylphenoxy)cyclopentyl)-2-(4-((((1r,3S)-3-((2-(2,6-dioxopiperidin-3-yl)-7-methoxy-1,3-dioxoisoindolin-5-yl)oxy)cyclobutyl) (isopropyl)amino)methyl)piperidin-1-yl)pyrimidine-5-carboxamide]: more than 100 nM.
Still for that read-out and setting: in the case of `N#Cc1ccc(O[C@H]2CC[C@H](NC(=O)c3ccc(N4CCC(CN5CCN(c6ccc7c(c6)C(=O)N(C6(F)CCC(=O)NC6=O)C7=O)CC5)CC4)nn3)CC2)cc1Cl` (mixture of isomers) [Compound 18, rac-N-((1r,4r)-4-(3-chloro-4-cyanophenoxy)cyclohexyl)-6-(4-((4-(2-(3-fluoro-2,6-dioxopiperidin-3-yl)-1,3-dioxoisoindolin-5-yl)piperazin-1-yl)methyl)piperidin-1-yl)pyridazine-3-carboxamide] it was less than 1 nM.
Still for that read-out and setting: in the case of `N#Cc1ccc(O[C@H]2CC[C@H](NC(=O)c3cnc(N4CCC(CN(C5COC5)[C@H]5C[C@H](Oc6ccc7c(c6)CN(C6CCC(=O)NC6=O)C7=O)C5)CC4)cn3)CC2)cc1Cl` (some centres unmarked) [Compound 21, N-((1r,4r)-4-(3-chloro-4-cyanophenoxy)cyclohexyl)-5-(4-((((1r,3r)-3-((2-(2,6-dioxopiperidin-3-yl)-1-oxoisoindolin-5-yl)oxy)cyclobutyl) (oxetan-3-yl)amino)methyl)piperidin-1-yl)pyrazine-2-carboxamide] it was less than 1 nM.

The assay is the same for the next values; noted with them: degradation of AR ELISA in LNCaP and/or VCaP cells; Table 2C; read-out: DC50 Code*.
On to `Cc1cc(O[C@H]2C(C)(C)[C@H](NC(=O)c3cnc(N4CCC(CCN5CC(Oc6ccc7c(c6)C(=O)N(C6CCC(=O)NC6=O)C7=O)C5)CC4)cn3)C2(C)C)cc(C)c1C#N` (some centres unmarked) [compound 115, N-((1r,3r)-3-(4-cyano-3,5-dimethylphenoxy)-2,2,4,4-tetramethylcyclobutyl)-5-(4-(2-(3-((2-(2,6-dioxopiperidin-3-yl)-1,3-dioxoisoindolin-5-yl)oxy)azetidin-1-yl)ethyl)piperidin-1-yl)pyrazine-2-carboxamide], for which the half-maximal degradation concentration (DC50) is less than 1 nM.
Still for that read-out and setting: the same measure for `COCCN(CC1CCN(c2ccc(C(=O)N[C@H]3C(C)(C)[C@H](Oc4ccc(C#N)c(Cl)c4)C3(C)C)nn2)CC1)[C@H]1C[C@H](Oc2ccc3c(c2)C(=O)N(C2CCC(=O)NC2=O)C3=O)C1` (some centres unmarked) [compound 127, N-((1r,3r)-3-(3-chloro-4-cyanophenoxy)-2,2,4,4-tetramethylcyclobutyl)-6-(4-((((1r,3r)-3-((2-(2,6-dioxopiperidin-3-yl)-1,3-dioxoisoindolin-5-yl)oxy)cyclobutyl)(2-methoxyethyl)amino)methyl)piperidin-1-yl)pyridazine-3-carboxamide]: less than 1 nM; for `CCN(CC1CCN(c2cnc(C(=O)N[C@H]3C(C)(C)[C@H](Oc4cc(C)c(C#N)c(C)c4)C3(C)C)cn2)CC1)[C@H]1C[C@H](Oc2ccc3c(c2)C(=O)N(C2CCC(=O)NC2=O)C3=O)C1` (some centres unmarked) [compound 206, N-((1r,3r)-3-(4-cyano-3,5-dimethylphenoxy)-2,2,4,4-tetramethylcyclobutyl)-5-(4-((((1r,3r)-3-((2-(2,6-dioxopiperidin-3-yl)-1,3-dioxoisoindolin-5-yl)oxy)cyclobutyl) (ethyl)amino)methyl)piperidin-1-yl)pyrazine-2-carboxamide]: less than 1 nM; for `CCN(CC1CCN(c2ncc(C(=O)N[C@H]3C(C)(C)[C@H](Oc4cc(C)c(C#N)c(C)c4)C3(C)C)cn2)CC1)[C@H]1C[C@H](Oc2ccc3c(c2)C(=O)N(C2CCC(=O)NC2=O)C3=O)C1` (some centres unmarked) [compound 83, N-((1r,3r)-3-(4-cyano-3,5-dimethylphenoxy)-2,2,4,4-tetramethylcyclobutyl)-2-(4-((((1r,3r)-3-((2-(2,6-dioxopiperidin-3-yl)-1,3-dioxoisoindolin-5-yl)oxy)cyclobutyl)(ethyl)amino)methyl)piperidin-1-yl)pyrimidine-5-carboxamide]: less than 1 nM.
As for `COc1cc(O[C@H]2C[C@H](N3CCOC4(CCN(c5ccc(C(=O)N[C@H]6C(C)(C)[C@H](Oc7cc(C)c(C#N)c(C)c7)C6(C)C)cc5)CC4)C3)C2)cc2c1C(=O)N(C1CCC(=O)NC1=O)C2=O` (mixture of isomers) [compound 220, rac-N-((1r,3r)-3-(4-cyano-3,5-dimethylphenoxy)-2,2,4,4-tetramethylcyclobutyl)-4-(4-((1r,3r)-3-((2-(2,6-dioxopiperidin-3-yl)-7-methoxy-1,3-dioxoisoindolin-5-yl)oxy)cyclobutyl)-1-oxa-4,9-diazaspiro[5.5]undecan-9-yl)benzamide], the DC50 is less than 1 nM.
In the case of `COCCN(CC1CCN(c2ccc(C(=O)N[C@H]3C(C)(C)[C@H](Oc4cc(C)c(C#N)c(C)c4)C3(C)C)cc2)CC1)[C@H]1C[C@H](Oc2ccc3c(c2)C(=O)N(C2CCC(=O)NC2=O)C3=O)C1` (some centres unmarked) [compound 96, N-((1r,3r)-3-(4-cyano-3,5-dimethylphenoxy)-2,2,4,4-tetramethylcyclobutyl)-4-(4-((((1r,3r)-3-((2-(2,6-dioxopiperidin-3-yl)-1,3-dioxoisoindolin-5-yl)oxy)cyclobutyl)(2-methoxyethyl)amino)methyl)piperidin-1-yl)benzamide], the DC50 is less than 1 nM.
Same read-out and setting: the same measure for `Cc1cc(O[C@H]2C(C)(C)[C@H](NC(=O)c3ccc(N4CC(CN(C(C)C)[C@H]5C[C@H](Oc6ccc7c(c6)C(=O)N(C6CCC(=O)NC6=O)C7=O)C5)C4)cc3)C2(C)C)cc(C)c1C#N` (some centres unmarked) [compound 187, N-((1r,3r)-3-(4-cyano-3,5-dimethylphenoxy)-2,2,4,4-tetramethylcyclobutyl)-4-(3-((((1r,3r)-3-((2-(2,6-dioxopiperidin-3-yl)-1,3-dioxoisoindolin-5-yl)oxy)cyclobutyl) (isopropyl)amino)methyl)azetidin-1-yl)benzamide]: less than 1 nM; for `Cc1cc(O[C@H]2C(C)(C)[C@H](NC(=O)c3cnc(N4CC(CN[C@H]5C[C@H](Oc6ccc7c(c6)C(=O)N(C6CCC(=O)NC6=O)C7=O)C5)C4)nc3)C2(C)C)cc(C)c1C#N` (some centres unmarked) [compound 82, N-((1r,3r)-3-(4-cyano-3,5-dimethylphenoxy)-2,2,4,4-tetramethylcyclobutyl)-2-(3-((((1r,3r)-3-((2-(2,6-dioxopiperidin-3-yl)-1,3-dioxoisoindolin-5-yl)oxy)cyclobutyl)amino)methyl)azetidin-1-yl)pyrimidine-5-carboxamide]: less than 1 nM; for `COCCOCCOCCN(CC1CCN(c2ncc(C(=O)N[C@H]3C(C)(C)[C@H](Oc4cc(C)c(C#N)c(C)c4)C3(C)C)cn2)CC1)[C@H]1C[C@H](Oc2ccc3c(c2)C(=O)N(C2CCC(=O)NC2=O)C3=O)C1` (some centres unmarked) [compound 144, N-((1r,3r)-3-(4-cyano-3,5-dimethylphenoxy)-2,2,4,4-tetramethylcyclobutyl)-2-(4-(2-((1r,3r)-3-((2-(2,6-dioxopiperidin-3-yl)-1,3-dioxoisoindolin-5-yl)oxy)cyclobutyl)-5,8,11-trioxa-2-azadodecyl)piperidin-1-yl)pyrimidine-5-carboxamide]: less than 1 nM.
With `Cc1cc(O[C@H]2C(C)(C)[C@H](NC(=O)c3c(C)nc(N4CCC(CN(C(C)C)[C@H]5C[C@H](Oc6ccc7c(c6)C(=O)N(C6CCC(=O)NC6=O)C7=O)C5)CC4)nc3C)C2(C)C)cc(C)c1C#N` (mixture of isomers) [compound 200, rac-N-((1r,3r)-3-(4-cyano-3,5-dimethylphenoxy)-2,2,4,4-tetramethylcyclobutyl)-2-(4-((((1r,3r)-3-((2-(2,6-dioxopiperidin-3-yl)-1,3-dioxoisoindolin-5-yl)oxy)cyclobutyl) (isopropyl)amino)methyl)piperidin-1-yl)-4,6-dimethylpyrimidine-5-carboxamide], the DC50 is less than 1 nM.
The same measure, in the same setting: the same measure for `Cc1cc(O[C@H]2C(C)(C)[C@H](NC(=O)c3ccc(N4CCC(CN5CCCC[C@@H]5COc5ccc6c(c5)C(=O)N(C5CCC(=O)NC5=O)C6=O)CC4)cc3)C2(C)C)cc(C)c1C#N` (stereo partly drawn) [compound 192, N-((1r,3R)-3-(4-cyano-3,5-dimethylphenoxy)-2,2,4,4-tetramethylcyclobutyl)-4-(4-(((2R)-2-(((2-(2,6-dioxopiperidin-3-yl)-1,3-dioxoisoindolin-5-yl)oxy)methyl)piperidin-1-yl)methyl)piperidin-1-yl)benzamide]: less than 1 nM; for `[2H]C([2H])([2H])Oc1cc(O[C@H]2C[C@H](N(CC3CCN(c4ccc(C(=O)N[C@H]5C(C)(C)[C@H](Oc6cc(C)c(C#N)c(C)c6)C5(C)C)cc4)CC3)C(C)C)C2)cc2c1C(=O)N(C1CCC(=O)NC1=O)C2=O` (mixture of isomers) [compound 153, rac-N-((1r,3r)-3-(4-cyano-3,5-dimethylphenoxy)-2,2,4,4-tetramethylcyclobutyl)-4-(4-((((1r,3r)-3-((2-(2,6-dioxopiperidin-3-yl)-7-(methoxy-d3)-1,3-dioxoisoindolin-5-yl)oxy)cyclobutyl) (isopropyl)amino)methyl)piperidin-1-yl)benzamide]: less than 1 nM.
The same measure, in the same setting: the same measure for `Cc1cc(O[C@H]2C(C)(C)[C@H](NC(=O)c3ccc(N4CCC(CN5CCC[C@@H]5COc5ccc6c(c5)C(=O)N(C5CCC(=O)NC5=O)C6=O)CC4)cc3)C2(C)C)cc(C)c1C#N` (stereo partly drawn) [compound 193, N-((1r,3R)-3-(4-cyano-3,5-dimethylphenoxy)-2,2,4,4-tetramethylcyclobutyl)-4-(4-(((2R)-2-(((2-(2,6-dioxopiperidin-3-yl)-1,3-dioxoisoindolin-5-yl)oxy)methyl)pyrrolidin-1-yl)methyl)piperidin-1-yl)benzamide]: less than 1 nM.
